Test results as given in patent US20230103774A1, “USE OF KAURANE COMPOUNDS IN PREPARATION OF DRUG FOR PREVENTION AND TREATMENT OF SEPSIS AND MULTIPLE ORGAN DAMAGE” (KEY-PHARMA BIOMEDICAL INC., priority 2020, published 2023).
Entries after “also recorded” stand apart in the source; their conditions may differ.

Legend:
[1] = tested on: mitochondria; assay: mitochondrial protection during sepsis; details: administration during sepsis
[2] = tested on: LPS-induced septic mice; assay: liver function of LPS-induced septic mice (plasma ALT, AST, SOD, histopathology); type: in vivo
Source text: The prepared plasma of each group was taken to determine the levels of alanine aminotransferase (ALT), aspartate aminotransferase (AST) and superoxide dismutase (SOD) in plasma by a microplate reader according to the manufacture's instruction.

[3] = tested on: HIF-1α; assay: HIF-1α expression after LPS and macrophage regulation
[4] = tested on: lactate dehydrogenase (LDH) and creatine kinase (CK) in plasma; assay: plasma myocardial injury indexes LDH and CK; type: in vivo; details: LPS-induced septic mice, versus LPS group, p<0.01
Method: Serum lactate dehydrogenase (LDH) and creatine kinase (CK) were determined according to the istructions provided by Nanjing Jiancheng Biotechnology Co., Ltd.

[5] = dose of 5 mg/kg for adults; cited from earlier work
[6] = tested on: LPS-induced septic Balb/C mice; assay: mortality of LPS-induced septic Balb/C mice after intraperitoneal compound A; type: in vivo; details: for improved the survival rate of mice: P<0.01
Method: This example mainly observes the effect of intraperitoneal injection of different doses of Compound A on the mortality of LPS-septic Balb/C mice.
To observe the effect of intraperitoneal injection of different doses of compound A on the mortality of LPS-induced sepsis mice.
The mice were randomly divided into 6 groups: • (1) Control group: intraperitoneal injection of physiological saline (solvent) (0.1 ml/10 g) once a day for three consecutive days, 1 hour after intraperitoneal injection on the third day, intraperitoneal injection of physiological saline (0.2 ml/10 g); • (2) LPS group: intraperitoneal injection of saline (0.1 ml/10 g), 1 time/d for 3 consecutive days, 1 hour after intraperitoneal injection on the third day, intraperitoneal injection of LPS (20 mg/kg, 0.1 ml/10 g). • (3) Compound A (5 mg/kg)+LPS group: intraperitoneal injection of compound A (5 mg/kg, 0.1 ml/10 g), 1 time/d for 3 consecutive days, 1 hour after intraperitoneal injection on the third day, intraperitoneal injection LPS (20 mg/kg, 0.1 ml/10 g). • (4) Compound A (10 mg/kg)+LPS group: intraperitoneal injection of compound A (10 mg/kg, 0.1 ml/10 g), 1 time/d for 3 consecutive days, 1 hour after intraperitoneal injection on the third day, intraperitoneal injection LPS (20 mg/kg, 0.1 ml/10 g). • (5) Compound A (20 mg/kg)+LPS group: intraperitoneal injection of compound A (20 mg/kg, 0.1 ml/10 g), 1 time/d for 3 consecutive days, 1 hour after intraperitoneal injection on the third day, intraperitoneal injection LPS (20 mg/kg, 0.1 ml/10 g). • (6) Compound A (60 mg/kg)+LPS group: intraperitoneal injection of compound A (60 mg/kg, 0.1 ml/10 g), 1 time/d for 3 consecutive days, 1 hour after intraperitoneal injection on the third day, intraperitoneal injection LPS (20 mg/kg, 0.1 ml/10 g).
After intraperitoneal injection of LPS, the survival of mice in each group was observed every 12 h for six consecutive days.
Based on the previously reports, the dose of 5 mg/kg for adults is an acceptable and safe dose, and the maximum blood concentration reaches 20 μM, which is equivalent to 45 mg/kg in mice. Accordingly, 10 mg/kg STV-Na was employed for further studies.

[7] = tested on: primary peritoneal macrophages; assay: flow cytometry of M1/M2 primary peritoneal macrophages of LPS induced septic mice; type: in vivo; details: 6 hours after 20 mg/kg LPS i.p., versus LPS group
Method: This example illustrates the effect of compound A on macrophage polarization. • (1) Grouping of experimental animals: 6-8 week old Balb/c male mice were randomly divided into 4 groups after one week of adaptive feeding, 10 mice in each group, namely the Control group, the LPS group, the compound A group and the dexamethasone group. The LPS group, compound A group and dexamethasone group were given intraperitoneally injection of a 20 mg/kg of LPS. […]

[8] = tested on: LPS-induced lung injury mice; assay: lung function by whole body plethysmography (Penh, EF50, TV); type: in vivo
Method: The lung function of each group of mice was measured at 6 h. Mice were placed in a closed chamber of a whole body plethysmograph (BUXCO, USA), and the plethysmographic chamber was connected to a sensor. […] In this experiment, we used Buxco's pulmonary function testing system to measure and record the 50% tidal expiratory volume, tidal volume, and changes in airway responsiveness in each group of mice by whole body plethysmography to assess lung function. This method offers a real-time lung function of mice under non-invasive conditions. Penh is a pulmonary function parameter related to airway resistance and intrapleural pressure, and Penh is used as an index to evaluate airway response.

[9] = tested on: Animals that survived sepsis; assay: fibrosis of affected organs after recovery from sepsis; type: in vivo
[10] = tested on: LPS-induced septic mice; assay: cardiac function of LPS-induced septic mice by echocardiography (Vevo2100); type: in vivo; details: for ejection fraction (EF) / fractional shortening (FS): 6 h after i.p. LPS, versus LPS group
Source text: Six hours after intraperitoneal injection of LPS, mice in each group were weighed and anesthetized, and the cardiac function of the mice was detected by Vevo2100 imaging system. The mice were put into the recumbent position and fixed on a constant temperature heating plate under heart rate of 400-500 times per minute. The limbs were fixed on the four metal poles with tape. The ultrasound probe was placed in the left thoracic region of the mouse, and the short axis of the parasternal left ventricle was obtained by 2D ultrasound. The left ventricular motion was recorded at the papillary muscle level by M-ultrasound, and heart rate (HR), left ventricular systolic diameter (LVID: FS), left ventricular diastolic diameter (LVID: d), left ventricular systolic diameter (LVID: FS), left ventricular diastolic diameter (LVID: Fd), and left ventricular diastolic […] thickness (LVPWF: FdF) were measured. Using Vevo2100 small animal ultrasound system software to process and analyze the acquired images. Determination of mouse plasma myocardial injury indexes (LDH and CK)
Ejection Fractions (EF), refers to the percentage of cardiac stroke volume in ventricular end-diastolic volume, which is an indicator of myocardial contractility. […] The left ventricular short-axis shortening rate (fractional shortening, FS) refers to the ratio of the inner diameter of the ventricle at the end systole to the inner diameter of the ventricular end diastole, and also reflects the systolic function of the heart (FS=(left ventricular end-diastolic diameter (LVDd)−Left ventricular end-systolic diameter (LVDs))/left ventricular end-diastolic diameter×100%).

[11] = tested on: white blood cells, neutrophils and monocytes; assay: white blood cells, neutrophils and monocytes in LPS induced septic mice; type: in vivo; details: versus LPS group
[12] = tested on: LPS-induced septic mice; assay: renal function of LPS-induced septic mice (plasma BUN, Crea, histopathology); type: in vivo
Source text: The prepared plasma of each group was taken to determine the levels of urea nitrogen (BUN) and creatinine (Crea) in plasma by a microplate reader following the manufacture's instruction.

[13] = solubility; type: physicochemical; details: sodium salt versus compound A
[14] = tested on: macrophage M1 and M2 in cardiac tissue; assay: ROS and M1/M2 macrophages in heart of septic mice; type: in vivo
[15] = tested on: TNF-α, IL-6 and IL-1β; assay: pro-inflammatory cytokine expression in plasma of septic mice; type: in vivo; details: 6 h after intraperitoneal injection of LPS; different doses
[16] = tested on: septic lung tissues; assay: acute lung injury caused by sepsis (lung tissue, blood oxygen saturation); type: in vivo; details: septic mice
[17] = tested on: LPS-induced septic mice; assay: spleen/body weight ratio after LPS; type: in vivo; details: even lower than that of the Control group
Method: The fur color, consciousness, physical activity, diet, etc. of the mice were observed, and the heart, liver, spleen, lung and kidney of the mice were weighed 6 hours after intraperitoneal injection of LPS.

[18] = under certain conditions in vitro; cited from earlier work
[19] = 6 hours after LPS injection, versus LPS group, p<0.01
[20] = pretreated septic mice versus LPS group

C[C@@]12CC[C@@H]3[C@@](CC[C@H]4[C@@]3(C)CCC[C@@]4(C)C(=O)O)(CC1=O)C2 [Compound A, (4α, 8β, 13 β)-13-METHYL-16-OXO-17-Norkauran-18-OIC acid]
cytochrome C release [1]: reduce
inflammation cytokine TNF-α and IL-1β [1]: inhibiting
mitochondrial membrane potential [1]: increase
number of mitochondria [1]: increase
production of superoxide such as NO in cells [1]: reduce
alanine aminotransferase (ALT) in plasma ([2]; LPS-induced septic mice): significantly decreased
aspartate aminotransferase (AST) in plasma ([2]; LPS-induced septic mice): significantly decreased
superoxide dismutase (SOD) in plasma ([2]; LPS-induced septic mice): significantly decreased
infiltration of inflammatory cells in liver (histopathological staining) ([2]; septic animals): reduced
HIF-1α expression ([3]; after LPS injection): reduced
metabolic regulation effect on macrophages ([3]; with DMOG, a competitive inhibitor of HIF-1α prolyl hydroxylase): abolished
CK level in plasma [4]: significantly decreased
LDH level in plasma [4]: downward trend
LDH level in plasma ([4]; listed as STV-Na): significantly decreased
maximum blood concentration [5]: 20 µM
survival of mice ([6]; 5 mg/kg i.p. 1 time/d for 3 days, then LPS 20 mg/kg i.p., no significant difference with the LPS group (p>0.05)): all mice in the 5 mg/kg compound A group died
improved the survival rate of mice ([6]; 10 mg/kg i.p. 1 time/d for 3 days, then LPS 20 mg/kg i.p.): 52%
improved the survival rate of mice ([6]; 20 mg/kg i.p. 1 time/d for 3 days, then LPS 20 mg/kg i.p.): 67%
survival rate of mice ([6]; 10-20 mg/kg, large dose of LPS i.p., up to more than two-thirds surviving): significantly improved
M1 peritoneal macrophages (F4/80+CD11c+ CD206−) [7]: significantly inhibit; also recorded: significantly reduced
M2 peritoneal macrophages (F4/80+CD11c− CD206+) [7]: significantly inhibit; also recorded: significantly reduced
EF50 (expiratory flow at 50% tidal volume) [8, 19]: significantly higher
TV (tidal volume) [8, 19]: significantly higher
airway reactivity (Penh) ([8]; septic mice): returned to normal
fibrosis and collagen deposition in the lungs, heart, liver, and kidney [9]: marked reduction
ejection fraction (EF) [10]: significantly improved
fractional shortening (FS) [10]: significantly higher
ejection fraction (EF) ([10]; listed as STV-Na): markedly increased
fractional shortening (FS) ([10]; listed as STV-Na): markedly increased
CO [10, 20]: markedly increased
SV [10, 20]: markedly increased
level of white blood cells, neutrophils and monocytes [11]: significantly reduced
creatinine (Crea) in plasma ([12]; LPS-induced septic mice): significantly reduced
urea nitrogen (BUN) in plasma ([12]; LPS-induced septic mice): significantly decreased
urea nitrogen (BUN) in plasma ([12]; LPS-induced septic mice, listed as compound A): significantly reduced
lesions in the glomerulus and renal tubules (histopathological staining) ([12]; septic animals): milder than those in the model group
solubility [13]: better solubility
level of ROS in heart [14]: inhibited
biomarkers of M1 and M2 macrophages and number of macrophages in cardiac tissue ([14]; M1: IL-1β, McP1, CD11c, M2: Ym1, CD206): significantly decreased
TNF-α, IL-1β and IL-6 in plasma [15]: dose-dependently decreased
blood oxygen saturation [16]: significantly increased
lung function / acute lung injury and failure caused by sepsis [16]: significantly recovered
lung inflammation [16]: significantly reduced
lung tissue structure [16]: basically normal

C[C@@H]1C[C@H]2[C@@H]3CCC4=CC(=O)C=C[C@]4(C)[C@@]3(F)[C@@H](O)C[C@]2(C)[C@@]1(O)C(=O)CO [dexamethasone]
spleen/body weight ratio [17]: significantly reduced

C=C1C[C@@]23CC[C@H]4[C@@](C)(CCC[C@@]4(C)C(=O)O)[C@@H]2CC[C@]1(O)C3 [Compound B, ENT13Hyrdoxyaur-16-EN-18-Oic acid]
mutagenicity [18]: mutagenic
